From a melting point compilation (Tetko et al.; mined from patent text by program, amines drawn as free bases though some values may be those of a salt)

Compound	melting point [°C]
CCOC(=O)c1c(-c2cccc(F)c2)c(C#N)n2c1CN(C(=O)OC(C)(C)C)CC2	129 to 131
CC(O[Si](C)(C)C(C)(C)C)C1C(=O)NC1C1CCCC(OCCF)C1O (centres undefined)	106 to 110
O=C1[C@H]2CCC[C@H]2N(C(=O)CN2CCN(c3ccccc3)CC2)c2ccccc2N1Cc1ccccc1 (relative stereo)	164 to 165
CC(C)N1C(=O)c2ccccc2N(C(=O)CCl)S1(=O)=O	133 to 135
CCOC(=O)Nc1c(-c2ccccc2)c2cc(Cl)ccc2n1C	123 to 124
COc1cn(-c2ccc(-n3nccc3OC(F)F)cc2F)nc(-c2ccnn2-c2ccccc2)c1=O	177 to 179
COc1cc2c(cc1F)CCC2=O	152 to 154
CC(C)n1c(=O)n(C(=O)NCC2CCN(CC3(C(=O)O)CCCC3)CC2)c2ccccc21	165
O=C(c1ccc(F)cc1)C1CCN(CC2CSc3ccc(F)cc3C2)CC1 (centres undefined)	98 to 102
Cc1cnc(CCNC(=O)c2ccccc2NC(=O)c2cccc(C(F)(F)F)c2)[nH]1	168 to 172
c1ccc2c(c1)CSO2	87
O=C(O)C1=Cc2ccc3ccccc3c2OC1C(F)(F)F (centres undefined)	246 to 249
N#Cc1c[nH]c2cc(-c3ccccc3)sc2c1=O	> 300
CC(CO)NC(=O)C(F)(F)F (centres undefined)	80 to 81
Cc1c(NC(=O)c2ccc(OCCC(C)C)cc2F)ccc2cc(CN3CCCC3)cnc12	131
CN1C(=O)CC[C@]2(C)c3ccc(-c4ccc(C#N)cc4)cc3CC[C@@H]12	148 to 150
CCN(CC)c1ccc(C(O)C#Cc2ccc(C(=O)O)c(O)c2)cc1C(C)(C)C (centres undefined)	245
O=C(NCc1ccccc1)C1CC=CC(O)C1 (centres undefined)	127 to 128
OCC1OC(OCc2ccccc2)C(OCc2ccccc2)C(OCc2ccccc2)C1OCc1ccccc1 (centres undefined)	99 to 101
O=C1CC(Cl)C(=O)N1c1ccccc1 (centres undefined)	117 to 118
Cc1cc(-n2nc(C#N)cc2-c2ccc(S(C)(=O)=O)cc2)ccc1Br	152
COc1nc2ccc(Br)cc2c2c1C(=O)c1ccccc1-2	208 to 210
CCCCCCCCCCCCCC(=O)Oc1ccc([N+](=O)[O-])cc1OC(=O)CCCCCCCCCCCCC	58 to 60
Clc1ccc(CNc2nc(NC3CCCc4ccccc43)c3ccccc3n2)cc1 (centres undefined)	166 to 167
CNCCNC(=NCCSCc1[nH]cnc1C)NC#N	146 to 148

Compound	melting point [°C]
COc1ccc2cncc(CCl)c2c1	256 to 257
CCCCCCCCCCCCCCCCCCOc1cccc(C(=O)O)c1OCCCOc1ccc(OCc2ccccc2)cc1	75 to 76
CCCNc1c2c(nc3ccccc13)CCCC2O (centres undefined)	164
N#CCCNC(=O)c1cccc(-c2cccc3nn(Cc4ccc(F)c(F)c4)cc23)c1	191 to 192
CNC(=O)[C@@H]1O[C@H]1c1ccc(OC)cc1	135 to 136
Brc1ccc(-c2ccc(Br)cc2I)c(I)c1	89
COC(=O)c1ccc(C(=O)Nc2cc3c4c(c2)CCCC4CCC3)cc1	217 to 218
CCOc1cc2cc3c(Nc4cc(OC)c(Cl)cc4C)c(C#N)cnc3cc2cc1OCCN(CC(N)=O)CC(N)=O	168 to 170
CS(=O)(=O)Cc1cccc(CNC(=O)c2nc3scc(COCc4ccc(C(=O)O)cc4)c3c(=O)[nH]2)c1	246 to 248
O=c1[nH]c2sc3ccc(Br)cc3c2[nH]c1=O	> 320
O=C(CC(NC(=O)OCc1ccccc1)c1ccccc1)Nc1n[nH]c(=S)s1 (centres undefined)	222 to 223
COc1cc2c(cc1OC)CN(c1nc(Cl)nc3cc(OC)c(OC)cc13)CC2	183 to 186
CSc1nc(CC2CCN(c3ccccc3)CC2)nc(C(=O)NCC(=O)O)c1O	156 to 157
CCC(CC)[C@@H](CO)NS(=O)(=O)c1ccc(Cl)s1	115 to 118
COc1cc(CCNc2ncnc3c(F)ccc(F)c23)ccc1Oc1ccc(C(F)(F)F)cn1	119 to 121
CC(=O)N(C)[C@@H]1CN2C(=O)N(c3cc(Cl)cc(Cl)c3)C(=O)[C@@]2(Cc2ccc(OC(F)(F)F)cc2)C1	74.7
CC1(C(=O)N2CCC(n3c(=O)[nH]c4ccccc43)CC2)OCc2ccccc2-n2cccc21 (centres undefined)	208 to 210
COc1cc(C(=O)c2cccnc2)ccc1O	150 to 151
Cc1nc2ccccc2n2cnc(-c3nc(C4CC4)no3)c12	188 to 189
C=Cc1ccc(CP(=O)(C(=O)c2c(C)cc(C)cc2C)C(=O)c2c(C)cc(C)cc2C)cc1	208
COc1cccc(-c2ccc3c(c2)C(C)(C)C(=O)N3)c1	157 to 158
COC1=C(OC)C(=O)C2=C(CCC(CCOc3ccc(-c4ccccc4)cc3)CC2)C1=O	109 to 112
N=C(Nc1cc(Cl)cc(NC(=O)/C=C/c2ccccc2C(F)(F)F)c1)c1ccccc1F	209 to 210
COc1ccc(C2(c3ccc(OC)cc3)CCN(C[C@H]3CN(C)[C@@H]4Cc5c(Br)[nH]c6cccc(c56)[C@@]4(OC)C3)CC2)cc1	167 to 172
Cn1c(Nc2cc(C(F)(F)F)ccc2C(F)(F)F)nc(C(F)(F)F)cc1=O	155 to 156

Compound	melting point [°C]
O=C(Nc1ccc(Cl)c(C(F)(F)F)c1)c1ccccc1SSc1ccccc1C(=O)Nc1ccc(Cl)c(C(F)(F)F)c1	129 to 131
CCCCc1nc2cc[nH]c(=O)c2n1Cc1ccc(-c2ccccc2-c2nnn[nH]2)cc1	167
COc1cc(N)c2cc[nH]c2c1	83 to 86
CC(C)c1nn(-c2ccccn2)cc1CCCOc1ccccc1CC(=O)O	140 to 142
CCCc1c(C(=O)C2CC2)c2ccc(C(N)=O)cc2n1Cc1cc2c(cc1Cl)OCO2	162 to 164
C=Cc1ccc(COc2ccc(CCl)cc2)cc1	110 to 112
CSc1nc2cnc3ccccc3c2s1	116 to 119
Cc1ccc(C(C#N)=C2CCCCC2)cc1	50.5 to 51.3
COc1cc(Sc2ccccc2CCl)ccc1Cl	57 to 59
CCOC(=O)c1cn(CCF)c2c(F)c(C(C)=O)c(F)cc2c1=O	155 to 156
CCOC(=O)C1=CNC2=C(C(=O)OCC)CCC(C)N2C1=O (centres undefined)	138 to 140
CC(=O)Nc1ccc(C2CN(C)Cc3c(Cl)cc(Cl)cc32)cc1 (centres undefined)	205 to 206
CCCC(CC(=O)NC(=O)OC(C)(C)C)Nc1ccccc1 (centres undefined)	103 to 104
C=CCN(C=O)c1ccc([N+](=O)[O-])cc1C	56
COc1ccc(Br)c(O)c1	40 to 42
O=C(O)CCC(=O)CC(=O)c1cccnc1	156 to 158
Nc1ccc(OCCCl)cc1	91 to 92
CC(C)c1csc(COC(=O)NC(C(=O)NC(Cc2ccccc2)CC(O)C(Cc2ccccc2)NC(=O)OCc2cncs2)C(C)C)n1 (centres undefined)	62 to 64
Cc1nc(N2CCNCC2)c2nc(-c3ccccc3)cc-2[nH]1	236
COC(=O)c1c(Cc2ccc(S(=O)(=O)CCO)cc2)c(=O)c2ccc(Cl)cc2n1-c1ccccc1	172 to 174
COC(=O)Cc1ccc(C(O)(C#N)c2ccccc2)n1C (centres undefined)	137 to 138
CCCCN1CCCC1Cc1cccc(NC(N)=O)c1 (centres undefined)	80 to 83
Cn1nc(Cl)cc(Nc2ccncn2)c1=O	233 to 235
Nc1nc2c(Cc3ccsc3)c(I)[nH]c2c(=O)[nH]1	> 260
CCCN(CC(=O)NC12CC3CC(CC(C3)C1)C2)C(=O)NCCCc1ccncc1	132

Compound	melting point [°C]
CCc1oc(CCOc2ccc(N)cc2)nc1-c1ccccc1	89 to 90
NC(=O)N1C(=O)C(=C(OCC(=O)C2COCOC2)c2cccs2)c2cc(F)c(Cl)cc21	199 to 200
CC(C)Nc1ccc(C#Cc2cc(C(=O)Nc3ccc(CN4CCN(C)CC4)c(C(F)(F)F)c3)ccc2Cl)nn1	133 to 134
Cc1cc(C(F)(F)F)nc(N(C(N)=O)c2ccccc2C(F)(F)F)n1	150 to 153
O=c1ccc(-c2cc(F)cc(F)c2)n[nH]1	230
Cc1c(C)c2c(c(C)c1NC(=O)CC(C)(C)C)C(c1ccc(C(C)C)c(OCCO)c1)CO2 (centres undefined)	155 to 156
CC(=O)SCC(CC(C)C)C(=O)NCC(=O)O (centres undefined)	120 to 121
CC(=C1SC(=O)NC1=O)c1ccc(OCCOc2c(-c3ccc(F)cc3)n(C)c3cc(Cl)ccc3c2=O)cc1	292 to 296
CC(C)(C)OC(=O)[C@@H]1CS[C@H](c2ccccc2-c2ccccc2)N1C(=O)CNC(=O)Nc1cccc(CC(=O)O)c1	128
CC(C)c1[nH]n(-c2c(Cl)cc(Cl)cc2Cl)c2nc(Cc3ccc(NC(=O)OCCCN(C)C)cc3)nc(=O)c1-2	200 to 202
CCCC=Cc1c(C)nc(C(C)C)c(CO)c1-c1ccc(F)cc1	106 to 108
O=C(CC1CCCCC1)Nc1c(Cl)ccc2nc(N3CCC[C@@H](O)C3)ccc12	209 to 214
CC1=Cc2ccsc2Sc2ccccc21	70 to 71
C[C@@H]1S[C@@H](C(=O)Nc2ccc(CN3C(=O)CNC3=O)cc2)Cc2cc3c(cc2C1=O)OCO3	139 to 144
C#CCCCCCCCCCCOc1cccc(C(N)=O)c1	106 to 108
CCCCc1nc2cc(C(=O)O)cc(C(=O)O)c2n1Cc1ccccc1Cl	299 to 301
COc1ccc(C)c(NC(=O)CC23CC4CC(CC(C4)C2)C3)c1	147
CC(=O)Oc1c(C)c(C)c2c(nc(COc3ccc(CC4SC(=O)NC4=O)cc3)n2C)c1C (centres undefined)	250 to 253
CCCCCCCCCCCCCCOc1cccc(CC(=O)Nc2ccccc2CBr)c1	103 to 106
C[C@@H](n1cnc2cc(C(F)(F)F)ccc2c1=O)[C@](O)(Cn1cncn1)c1ccc(F)cc1F	142 to 143
Cn1nc(C(F)(F)F)cc1Oc1cc(OC(F)F)cnn1	86 to 88
Cc1c(-c2ccccc2)oc(=O)n1C1CCN(CCc2ccccc2)CC1	144
FC(F)(F)c1ccn(-c2cccnc2)n1	59 to 61
OCc1cc(-c2ccc(Cl)cc2)nc2ccnn12	185 to 186
